Source: ChEMBL document CHEMBL1156305 (Bioorg Med Chem Lett, 2010)
pEC50, pKi: −log10 of the molar value. Activity calls are given as the source filed them. No cut-off for these calls is given here.

How the values were obtained:
[1] = biological target: T1, 5-hydroxytryptamine receptor 2C (Homo sapiens, UniProt P28335); experiment: Binding affinity to 5HT2C receptor
T1 sequence (P28335 whole entry): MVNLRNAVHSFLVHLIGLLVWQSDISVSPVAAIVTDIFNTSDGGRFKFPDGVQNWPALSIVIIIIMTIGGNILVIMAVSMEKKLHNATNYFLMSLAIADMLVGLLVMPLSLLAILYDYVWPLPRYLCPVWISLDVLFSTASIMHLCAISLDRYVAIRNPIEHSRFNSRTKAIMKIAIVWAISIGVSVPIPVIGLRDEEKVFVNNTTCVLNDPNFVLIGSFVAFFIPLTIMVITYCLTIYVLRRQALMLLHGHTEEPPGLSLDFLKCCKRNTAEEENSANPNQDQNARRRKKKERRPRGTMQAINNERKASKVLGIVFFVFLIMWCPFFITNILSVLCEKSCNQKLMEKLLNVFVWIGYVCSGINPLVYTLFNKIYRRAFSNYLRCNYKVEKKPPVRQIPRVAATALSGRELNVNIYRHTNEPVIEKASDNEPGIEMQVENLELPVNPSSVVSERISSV

[2] = Selectivity ratio of Ki for 5HT2B receptor to Ki for 5HT2C receptor
[3] = biological target: T2, 5-hydroxytryptamine receptor 2B (Homo sapiens, UniProt P41595); experiment: Binding affinity to 5HT2B receptor; settings: for pKi: read-out: Ki
T2 sequence (P41595 whole entry): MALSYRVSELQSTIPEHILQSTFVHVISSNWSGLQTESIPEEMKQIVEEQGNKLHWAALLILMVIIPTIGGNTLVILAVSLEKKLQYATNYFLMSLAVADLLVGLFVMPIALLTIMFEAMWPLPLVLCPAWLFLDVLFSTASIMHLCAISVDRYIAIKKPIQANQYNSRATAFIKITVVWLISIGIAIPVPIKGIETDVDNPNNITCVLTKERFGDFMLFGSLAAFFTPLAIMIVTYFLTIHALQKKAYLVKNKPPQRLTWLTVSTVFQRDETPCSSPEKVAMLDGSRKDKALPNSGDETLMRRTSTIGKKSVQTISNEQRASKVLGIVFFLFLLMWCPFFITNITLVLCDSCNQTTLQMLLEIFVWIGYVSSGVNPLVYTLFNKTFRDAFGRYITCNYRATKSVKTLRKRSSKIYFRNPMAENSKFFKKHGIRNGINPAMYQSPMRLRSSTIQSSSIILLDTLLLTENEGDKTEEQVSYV

[4] = biological target: T3, 5-hydroxytryptamine receptor 2A (Homo sapiens, UniProt P28223); experiment: Binding affinity to 5HT2A receptor; settings: for pKi: read-out: Ki
T3 sequence (P28223 whole entry): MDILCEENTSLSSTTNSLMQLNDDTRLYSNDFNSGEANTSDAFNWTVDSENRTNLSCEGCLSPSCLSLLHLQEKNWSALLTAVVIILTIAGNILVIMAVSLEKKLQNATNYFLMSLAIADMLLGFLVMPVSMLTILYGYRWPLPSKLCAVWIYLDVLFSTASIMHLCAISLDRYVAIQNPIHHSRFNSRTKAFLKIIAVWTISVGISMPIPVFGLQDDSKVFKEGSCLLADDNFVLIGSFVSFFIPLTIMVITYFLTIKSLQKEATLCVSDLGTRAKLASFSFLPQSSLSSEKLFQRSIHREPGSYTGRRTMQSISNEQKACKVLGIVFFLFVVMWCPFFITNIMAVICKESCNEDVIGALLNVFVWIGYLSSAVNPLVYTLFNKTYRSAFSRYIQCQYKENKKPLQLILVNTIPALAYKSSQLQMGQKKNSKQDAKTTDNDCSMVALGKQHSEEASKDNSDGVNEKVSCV

[5] = biological target: T1, 5-hydroxytryptamine receptor 2C; experiment: Agonist activity at 5HT2C receptor; format: functional
[6] = biological target: T2, 5-hydroxytryptamine receptor 2B; experiment: Agonist activity at 5HT2B receptor; format: functional
[7] = biological target: T3, 5-hydroxytryptamine receptor 2A; experiment: Agonist activity at 5HT2A receptor; format: functional
[8] = biological target: T4, 5-hydroxytryptamine receptor 2C (Homo sapiens) (UniProt P28335); experiment: Agonist activity at 5HT2C receptor relative to control; format: functional; design: concentration or dose not given beside the values
T4 sequence (whole entry): T1 sequence (P28335 whole entry)

[9] = biological target: T3, 5-hydroxytryptamine receptor 2A; experiment: Agonist activity at 5HT2A receptor relative to control; format: functional
[10] = Bioavailability in rat; format: ADME, organism-based; settings: in vivo
[11] = Ratio of total drug level in brain to plasma in Sprague-Dawley rat; format: ADME, cell-free; settings: brain and plasma
[12] = Half life in human hepatocytes; format: ADME, cell-based, Liver, Hepatocyte
[13] = Bioavailability in dog; format: ADME, organism-based, Canis lupus familiaris; settings: in vivo
[14] = Half life in human liver microsomes; format: ADME, Microsome
Rattus norvegicus [15] = experiment: Inhibition of spontaneous nocturnal food intake in po dosed Sprague-Dawley rat measured up to 840 mins; format: functional, organism-based
[16] = Ratio of drug level in RBC to plasma in Sprague-Dawley rat; format: ADME; settings: in vivo
Rattus norvegicus [17] = organism: Rattus norvegicus; experiment: Ex vivo agonist activity at 5HT2B receptor in rat stomach fundus; format: functional, organism-based
Macaca mulatta = organism: Macaca mulatta; experiment: Activity at MAPK in monkey heart valve […] cells
Plasma = experiment: Fraction unbound in Sprague-Dawley rat plasma; format: ADME, cell-free
Rattus norvegicus [18] = organism: Rattus norvegicus; experiment: Effect on 5HT2A receptor-mediated head twitches in rat; format: functional, organism-based
[19] = Ratio of free drug level in brain to plasma in Sprague-Dawley rat; format: ADME, cell-free; settings: brain and plasma
Rattus norvegicus [20] = experiment: Inhibition of spontaneous nocturnal food intake in po dosed Sprague-Dawley rat measured up to 25 hrs; format: functional, organism-based

pKi [1]	pKi [3]	pEC50 [5]	Activity [8] [%]	Structure (SMILES)	also measured
6.19	–	–	–	O=C(NCc1ccc(OC(F)(F)F)cc1)C1CCNC1 (centres undefined)	–
6.49	< 5.00	–	–	O=C(NCc1ccc(OC(F)(F)F)cc1)[C@@H]1CCCN1	Ratio Ki [2]: > 1000
7.37	< 5.00	–	–	Cc1noc(C)c1COc1cc(F)c(COC(=O)N2[C@H](C)CNC[C@@H]2C)c(F)c1	–
8.77	–	8.30	85	COc1cc(OCC2CCCCC2)c(F)cc1CNC(=O)[C@@H]1CCCN1	Ki [4]: Not Active; pEC50 [6]: 5.40; pEC50 [7]: 6.30; Ki [3]: Not Active
8.40	5.46	–	–	O=C(NCc1ccc(-c2ccc(Cl)cc2)cc1F)N1CCNCC1	–
7.70	5.76	7.14	40	O=C(NCc1ccc(OCc2ccccc2)cc1)[C@@H]1CCCN1	–
8.10	–	6.74	65	O=C(NCc1ccc(-c2cc(Cl)cc(Cl)c2)cc1)[C@@H]1CCCN1	–
8.36	5.39	7.06	53	O=C(NCc1ccc(C2CCCCC2)cc1)[C@@H]1CCCN1	–
8.74	5.78	9.00	88	CC1(C)CCC(Oc2cc(F)c(CNC(=O)[C@@H]3CCCN3)cc2F)CC1	pKi [4]: 7.86; pEC50 [6]: < 5.00; pEC50 [7]: 6.89; Activity [9]: 98%
7.64	5.62	7.42	46	O=C(NCc1ccc(Oc2cccc(F)c2)cc1)[C@@H]1CCCN1	–
6.23	–	–	–	NCc1cccc(C(=O)NCc2ccc(OC(F)(F)F)cc2)c1	–
7.08	–	–	–	C[C@@H]1CNC[C@H](C)N1C(=O)OCc1ccccc1	–
9.05	5.40	8.64	95	COc1cc(OC2CCC(C)(C)CC2)c(F)cc1CNC(=O)[C@@H]1CCCN1	pKi [4]: 7.89; bioavailability [10]: 5.5%; Kp [11]: 10; half-life [12]: 7.33 h; bioavailability [13]: 5.5%; half-life [14]: 1.67 h; Activity (Rattus norvegicus [15]): Dose-dependent effect; Ratio [16]: 0.7; Activity (Rattus norvegicus [17]): inactive; Ratio Ki [2]: 10000; Activity (Macaca mulatta): inactive; pEC50 [6]: < 5.00; pEC50 [7]: 6.36; fraction unbound (Plasma): 3.6%; Activity (Rattus norvegicus [18]): inactive; Kp uu [19]: 0.4; Activity [9]: 76%; Activity (Rattus norvegicus [20]): Dose-dependent effect
7.60	–	7.36	46	C[C@H]1CC[C@@H](Oc2c(F)cc(CNC(=O)[C@@H]3CCCN3)cc2F)CC1	Ki [4]: Not Active; pEC50 [6]: < 5.00; pEC50 [7]: 6.82; Ki [3]: Not Active
